Source: US20240158446A1, “CYCLIC COMPOUND HAVING SELECTIVE INHIBITORY ACTION ON KRAS OVER HRAS AND NRAS” (CHUGAI SEIYAKU KABUSHIKI KAISHA, priority 2021, published 2024)
Where two headings read alike, the source gives them in different places.

Experiments:
[1] = molecular target: GDP-bound KRAS wild-type protein (Homo sapiens, UniProt P01116); assay: Binding to KRAS by surface plasmon resonance (SPR), Single Cycle Kinetics; conditions: GDP-bound KRAS wild-type protein, read-out: KRAS KD
[2] = molecular target: GDP-bound NRAS wild-type protein (Homo sapiens, UniProt P01111); assay: Binding to NRAS by surface plasmon resonance (SPR), Single Cycle Kinetics; conditions: for NRAS/KRAS (ratio of KD value for NRAS to KD value for KRAS): SPR, GDP-bound NRAS wild-type protein vs GDP-bound KRAS wild-type protein
Sequence of GDP-bound NRAS wild-type protein (P01111 whole entry): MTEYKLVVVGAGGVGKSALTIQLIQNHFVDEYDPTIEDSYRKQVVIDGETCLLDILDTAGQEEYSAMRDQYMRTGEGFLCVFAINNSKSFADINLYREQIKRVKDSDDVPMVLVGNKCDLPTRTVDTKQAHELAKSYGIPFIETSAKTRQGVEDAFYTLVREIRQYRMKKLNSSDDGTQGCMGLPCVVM

[3] = molecular target: GDP-bound HRAS wild-type protein (Homo sapiens, UniProt P01112); assay: Binding to HRAS by surface plasmon resonance (SPR), Single Cycle Kinetics; conditions: for HRAS/KRAS (ratio of KD value for HRAS to KD value for KRAS): SPR, GDP-bound HRAS wild-type protein vs GDP-bound KRAS wild-type protein
Sequence of GDP-bound HRAS wild-type protein (P01112 whole entry): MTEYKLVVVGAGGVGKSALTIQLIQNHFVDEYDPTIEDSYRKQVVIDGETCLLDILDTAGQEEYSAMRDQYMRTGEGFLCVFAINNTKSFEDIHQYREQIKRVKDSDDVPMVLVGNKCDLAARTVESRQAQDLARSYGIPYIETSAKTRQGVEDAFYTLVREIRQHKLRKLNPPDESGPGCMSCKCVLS

Sequence of GDP-bound KRAS wild-type protein (P01116 whole entry): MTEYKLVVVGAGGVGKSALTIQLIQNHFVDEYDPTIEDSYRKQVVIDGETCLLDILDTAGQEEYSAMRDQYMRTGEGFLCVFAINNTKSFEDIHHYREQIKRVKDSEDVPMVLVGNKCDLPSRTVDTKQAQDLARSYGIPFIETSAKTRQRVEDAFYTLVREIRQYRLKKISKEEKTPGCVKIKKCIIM

Row | Kd ([1]; SPR, Single Cycle Kinetics) [nM] | Structure (SMILES) | NRAS/KRAS (ratio of KD value for NRAS to KD value for KRAS) [2] | HRAS/KRAS (ratio of KD value for HRAS to KD value for KRAS) [3] | Kd ([1]; SPR Single Cycle Kinetics, 1:1 binding model) [nM] | NRAS/KRAS (ratio of KD value with respect to GDP-bound NRAS wild-type protein to KD value with respect to KRAS) ([2]; SPR KD ratio NRAS/KRAS, class symbols) | HRAS/KRAS (ratio of KD value with respect to GDP-bound HRAS wild-type protein to KD value with respect to KRAS) ([3]; SPR KD ratio HRAS/KRAS, class symbols)
1 | 1.4 | CCO[C@@H]1C[C@H]2C(=O)N(C)C3(CCC3)C(=O)N(C)[C@@H](C(CC)CC)C(=O)N(C)[C@H](C(=O)N(C)C)CC(=O)N(C)[C@@H](COC)C(=O)N[C@@H]([C@@H](C)CC)C(=O)N(C)CC(=O)N(C)[C@H]3C/C=C\CCN(C3=O)[C@@H](CC3CCCCC3)C(=O)N(C)CC(=O)N[C@@H](CCc3ccc(C(F)(F)F)c(OC)c3)C(=O)N2C1 [PP2335] | A (a compound having 10 or more and less than 20 is denoted as A) | A (a compound having 10 or more and less than 20 is denoted as A) | – | – | –
2 | 0.41 | CCC[C@H]1C(=O)N[C@@H]([C@@H](C)CC)C(=O)N(C)CC(=O)N(C)[C@H]2C/C=C\CCN(C2=O)[C@@H](CC2CCCCC2)C(=O)N(C)CC(=O)N[C@@H](CCc2ccc(C(F)(F)F)c(OC)c2)C(=O)N2C[C@H](OCC)C[C@H]2C(=O)N(C)C2(CCC2)C(=O)N(C)[C@@H](C2CCCC2)C(=O)N(C)[C@H](C(=O)N(C)C)CC(=O)N1C [PP2336] | A (a compound having 10 or more and less than 20 is denoted as A) | A (a compound having 10 or more and less than 20 is denoted as A) | – | – | –
3 | 2.6 | CCO[C@@H]1C[C@H]2C(=O)N(C)C3(CCC3)C(=O)N(C)[C@@H](C(CC)CC)C(=O)N(C)[C@H](C(=O)N(C)C)CC(=O)N(C)[C@@H](COC)C(=O)N[C@@H]([C@@H](C)CC)C(=O)N(C3CC3)CC(=O)N(C)[C@H]3C/C=C\CCN(C3=O)[C@@H](CC3CCCCC3)C(=O)N(C)CC(=O)N[C@@H](CCc3ccc(C(F)(F)F)c(OC)c3)C(=O)N2C1 [PP2339] | A (a compound having 10 or more and less than 20 is denoted as A) | A (a compound having 10 or more and less than 20 is denoted as A) | – | – | –
4 | 3.6 | CCC[C@H]1C(=O)N[C@@H]([C@@H](C)CC)C(=O)N2CCC[C@H]2C(=O)N(C)[C@H]2C/C=C\CCN(C2=O)[C@@H](CC2CCCCC2)C(=O)N(C)CC(=O)N[C@@H](CCc2ccc(C(F)(F)F)c(OC)c2)C(=O)N2C[C@H](OCC)C[C@H]2C(=O)N(C)C2(CCC2)C(=O)N(C)[C@@H](C(CC)CC)C(=O)N(C)[C@H](C(=O)N(C)C)CC(=O)N1C [PP2341] | A (a compound having 10 or more and less than 20 is denoted as A) | A (a compound having 10 or more and less than 20 is denoted as A) | – | – | –
5 | 0.95 | CCC[C@H]1C(=O)N[C@@H]([C@@H](C)CC)C(=O)N2CCC[C@H]2C(=O)N(C)[C@H]2C/C=C\CCN(C2=O)[C@@H](CC2CCCCC2)C(=O)N(C)CC(=O)N[C@@H](CCc2ccc(C(F)(F)F)c(OC)c2)C(=O)N2C[C@H](OCC)C[C@H]2C(=O)N(C)C2(CCC2)C(=O)N(C)[C@@H](C2CCCC2)C(=O)N(C)[C@H](C(=O)N(C)C)CC(=O)N1C [PP2344] | A (a compound having 10 or more and less than 20 is denoted as A) | A (a compound having 10 or more and less than 20 is denoted as A) | – | – | –
6 | 1.7 | CCC[C@H]1C(=O)N[C@@H]([C@@H](C)CC)C(=O)N(C)CC(=O)N(C)[C@H]2C/C=C\CCN(C2=O)[C@@H](CC2CCC(F)(F)CC2)C(=O)N(C)CC(=O)N[C@@H](CCc2ccc(C(F)(F)F)c(OC)c2)C(=O)N2C[C@H](OCC)C[C@H]2C(=O)N(C)C2(CCC2)C(=O)N(C)[C@@H](C(CC)CC)C(=O)N(C)[C@H](C(=O)N(C)C)CC(=O)N1C [PP2345] | A (a compound having 10 or more and less than 20 is denoted as A) | A (a compound having 10 or more and less than 20 is denoted as A) | – | – | –
7 | 1.6 | CCOC[C@H]1C(=O)N[C@@H]([C@@H](C)CC)C(=O)N(C)CC(=O)N(C)[C@H]2C/C=C\CCN(C2=O)[C@@H](CC2CCC(F)(F)CC2)C(=O)N(C)CC(=O)N[C@@H](CCc2ccc(C(F)(F)F)c(OC)c2)C(=O)N2C[C@H](OCC)C[C@H]2C(=O)N(C)C2(CCC2)C(=O)N(C)[C@@H](C(CC)CC)C(=O)N(C)[C@H](C(=O)N(C)C)CC(=O)N1C [PP2347] | A (a compound having 10 or more and less than 20 is denoted as A) | A (a compound having 10 or more and less than 20 is denoted as A) | – | – | –
8 | 0.34 | CCC[C@H]1C(=O)N[C@@H]([C@@H](C)CC)C(=O)N(C)CC(=O)N(C)[C@H]2C/C=C\CCN(C2=O)[C@@H](CC2CCC(F)(F)CC2)C(=O)N(C)CC(=O)N[C@@H](CCc2ccc(C(F)(F)F)c(OC)c2)C(=O)N2C[C@H](OCC)C[C@H]2C(=O)N(C)C2(CCC2)C(=O)N(C)[C@@H](C2CCCC2)C(=O)N(C)[C@H](C(=O)N(C)C)CC(=O)N1C [PP2348] | A (a compound having 10 or more and less than 20 is denoted as A) | A (a compound having 10 or more and less than 20 is denoted as A) | – | – | –
9 | 3.8 | CCC[C@H]1C(=O)N[C@@H]([C@@H](C)CC)C(=O)N(C2CC2)CC(=O)N(C)[C@H]2C/C=C\CCN(C2=O)[C@@H](CC2CCC(F)(F)CC2)C(=O)N(C)CC(=O)N[C@@H](CCc2ccc(C(F)(F)F)c(OC)c2)C(=O)N2C[C@H](OCC)C[C@H]2C(=O)N(C)C2(CCC2)C(=O)N(C)[C@@H](C(CC)CC)C(=O)N(C)[C@H](C(=O)N(C)C)CC(=O)N1C [PP2349] | A (a compound having 10 or more and less than 20 is denoted as A) | A (a compound having 10 or more and less than 20 is denoted as A) | – | – | –
10 | 0.35 | CCCOC[C@H]1C(=O)N[C@@H]([C@@H](C)CC)C(=O)N(C)CC(=O)N(C)[C@H]2C/C=C\CCN(C2=O)[C@@H](CC2CCC(F)(F)CC2)C(=O)N(C)CC(=O)N[C@@H](CCc2ccc(C(F)(F)F)c(OC)c2)C(=O)N2C[C@H](OCC)C[C@H]2C(=O)N(C)C2(CCC2)C(=O)N(C)[C@@H](C2CCCC2)C(=O)N(C)[C@H](C(=O)N(C)C)CC(=O)N1C [PP2350] | A (a compound having 10 or more and less than 20 is denoted as A) | A (a compound having 10 or more and less than 20 is denoted as A) | – | – | –
11 | 0.76 | CCC[C@H]1C(=O)N[C@@H]([C@@H](C)CC)C(=O)N(C2CC2)CC(=O)N(C)[C@H]2C/C=C\CCN(C2=O)[C@@H](CC2CCC(F)(F)CC2)C(=O)N(C)CC(=O)N[C@@H](CCc2ccc(C(F)(F)F)c(OC)c2)C(=O)N2C[C@H](OCC)C[C@H]2C(=O)N(C)C2(CCC2)C(=O)N(C)[C@@H](C2CCCC2)C(=O)N(C)[C@H](C(=O)N(C)C)CC(=O)N1C [PP2352] | A (a compound having 10 or more and less than 20 is denoted as A) | A (a compound having 10 or more and less than 20 is denoted as A) | – | – | –
12 | 4.1 | CCC[C@H]1C(=O)N[C@@H]([C@@H](C)CC)C(=O)N2CCC[C@H]2C(=O)N(C)[C@H]2C/C=C\CCN(C2=O)[C@@H](CC2CCC(F)(F)CC2)C(=O)N(C)CC(=O)N[C@@H](CCc2ccc(C(F)(F)F)c(OC)c2)C(=O)N2C[C@H](OCC)C[C@H]2C(=O)N(C)C2(CCC2)C(=O)N(C)[C@@H](C(CC)CC)C(=O)N(C)[C@H](C(=O)N(C)C)CC(=O)N1C [PP2353] | A (a compound having 10 or more and less than 20 is denoted as A) | A (a compound having 10 or more and less than 20 is denoted as A) | – | – | –
13 | 0.11 | CC[C@H](C)[C@@H]1NC(=O)[C@H](COC)N(C)C(=O)C[C@@H](C(=O)N(C)C)N(C)C(=O)[C@H](C2CCCC2)N(C)C(=O)C2(CC(C)(C)C2)NC(=O)[C@@H]2C[C@@H](C)CN2C(=O)[C@H](CCc2ccc(C(F)(F)F)c(OC)c2)NC(=O)CN(C)C(=O)[C@H](Cc2ccc(C)cc2)N2CC/C=C\C[C@@H](C2=O)N(C)C(=O)CN(C)C1=O [PP2387] | A (a compound having 10 or more and less than 20 is denoted as A) | A (a compound having 10 or more and less than 20 is denoted as A) | – | – | –
14 | 0.95 | CC[C@H](C)[C@@H]1NC(=O)[C@H](COC)N(C)C(=O)C[C@@H](C(=O)N(C)C)N(C)C(=O)[C@H](C2CCCC2)N(C)C(=O)C2(CC(C)(C)C2)NC(=O)[C@@H]2C[C@@H](OC(C)C)CN2C(=O)[C@H](CCc2cc(F)c(C(F)(F)F)c(F)c2)NC(=O)CN(C)C(=O)[C@H](CC2CCCCC2)N2CC/C=C\C[C@@H](C2=O)N(C)C(=O)CN(C2CC2)C1=O [PP2511] | A (a compound having 10 or more and less than 20 is denoted as A) | A (a compound having 10 or more and less than 20 is denoted as A) | – | – | –
15 | – | CCO[C@@H]1C[C@H]2C(=O)NC3(CC(C)(C)C3)C(=O)N(C)[C@@H](C3CCCC3)C(=O)N(C)[C@H](C(=O)N3CCCCC3)CC(=O)N(C)[C@H]3CCC/C=C/c4ccc(cc4)C[C@@H](C(=O)N(C)CC(=O)N[C@@H](CCc4cc(F)c(C(F)(F)F)c(F)c4)C(=O)N2C1)N1CC/C=C\C[C@@H](C1=O)N(C)C(=O)CN(C)C(=O)[C@H]([C@@H](C)CC)NC3=O [PP2573] | – | – | 0.1 | A (a compound having 10 or more and less than 20 is denoted as A) | A (a compound having 10 or more and less than 20 is denoted as A)
